Here are results for 21 molecules from patent publication US20060166985A1, “Pyrrolydin-2-one derivatives as inhibitors of thrombin and factor xa” (priority 2002, published 2006).

Structures are written as SMILES.

This test deals with human Thrombin (Homo sapiens, UniProt P00734). Briefly: In vitro assay for inhibition of Thrombin (chromogenic or fluorogenic assay). The format is biochemical. As to conditions: Example 2 chromogenic assay, other Examples fluorogenic assay, read-out: thrombin inhibitory Ki. How it is done:
Thrombin inhibitory activity is measured by the ability to inhibit human α-thrombin in a chromogenic assay using N-p-tosyl-gly-pro-lys p-nitroanilide as the chromogenic substrate, or in a fluorogenic assay using Rhodamine 110, bis-(CBZ-L-valyl-L-prolyl-L-arginine amide) as the fluorogenic substrate.
The compound was diluted from a 10 mM stock solution in dimethylsulfoxide at appropriate concentrations. Assay was performed at room temperature using buffer consisting of: 50 mM HEPES, 150 mM NaCl, 5 mM CaCl2, 0.1% PEG, pH 7.4. containing human Thrombin (final conc. of 1 nM). Compound and enzyme were preincubated for 15 min prior to addition of the substrate (final conc. of 100 μM). The reaction was stopped after 30 min with the addition of soybean trypsin inhibitor or H-D-PHE-PRO-ARG-Chloromethylketone. […] To obtain IC50 values the data were analysed using ActivityBase® and XLfit®.
Compounds were diluted from a 10 mM stock solution in dimethylsulfoxide at appropriate concentrations. Assay was performed at room temperature using buffer consisting of: 50 mM HEPES, 150 mM NaCl, 5 mM CaCl2, 0.1% PEG, pH 7.4. containing human Thrombin (final conc. Of 0.2 nM). Compound and enzyme were preincubated for 15 min prior to addition of the substrate (final conc. of 10 μM). The reaction was stopped after 3 hrs with the addition of H-D-PHE-PRO-ARG-Chloromethylketone. […] To obtain IC50 values the data were analysed using ActivityBase® and XLfit®.
Take `O=C(C(c1cccnc1)N1CC[C@H](NS(=O)(=O)CCc2ccc(Cl)s2)C1=O)N1CCOCC1` (mixture of isomers) [Example 92, 2-(5-chloro-2-thienyl)-N-{(3S)-1-[2-(4-morpholinyl)-2-oxo-1-(3-pyridinyl)ethyl]-2-oxo-3-pyrrolidinyl}ethanesulfonamide]: the Ki (in general, a measure of affinity in units of concentration, obtained from inhibition or displacement) was less than 50 nM.

For `C[C@@H](C(=O)N1CCOCC1)N1CC[C@H](NS(=O)(=O)/C=C/c2ccc(Cl)cc2)C1=O` [(E)-2-(4-chlorophenyl)-N-{(3S)-1-[(1S)-1-methyl-2-morpholin-4-yl-2-oxoethyl]-2-oxopyrrolidin-3-yl}ethenesulfonamide, reference compound], the Ki was more than 200 nM.

Take `C/C(=C\S(=O)(=O)N[C@H]1CCN([C@@H](C)C(=O)N2CCOCC2)C1=O)c1ccc(Cl)cc1` [Example 3, (1E)-2-(4-chlorophenyl)-N-{(3S)-1-[(1S)-1-methyl-2-morpholin-4-yl-2-oxoethyl]-2-oxopyrrolidin-3-yl}prop-1-ene-1-sulfonamide]: the Ki was less than 25 nM.

For the molecule `C[C@@H](C(=O)N1CCOCC1)N1CC[C@H](NS(=O)(=O)CCc2ccc(Cl)cc2)C1=O` [Example 4, 2-(4-chlorophenyl)-N-{(3S)-1-[(1S)-1-methyl-2-morpholin-4-yl-2-oxoethyl]-2-oxopyrrolidin-3-yl}ethanesulfonamide], the Ki was less than 50 nM.

As to `CC[C@@H](C(=O)N1CCOCC1)N1CC[C@H](NS(=O)(=O)CCc2ccc(Cl)s2)C1=O` [Example 5, 2-(5-chlorothien-2-yl)-N-{(3S)-1-[(1S)-1-(morpholin-4-ylcarbonyl)propyl]-2-oxopyrrolidin-3-yl}ethanesulfonamide], the inhibition constant (Ki) is less than 25 nM.

As to `CC[C@@H](C(=O)N1CCOCC1)N1CC[C@H](NS(=O)(=O)CCc2ccc(Cl)cc2)C1=O` [Example 6, 2-(4-chlorophenyl)-N-{(3S)-1-[(1S)-1-(morpholin-4-ylcarbonyl)propyl]-2-oxopyrrolidin-3-yl}ethanesulfonamide], the Ki was less than 100 nM.

Turning to `CC[C@@H](C(=O)N1CCOCC1)N1CC[C@H](NS(=O)(=O)/C=C(\C)c2ccc(Cl)s2)C1=O` [Example 7, (1E)-2-(5-chlorothien-2-yl)-N-{(3S)-1-[(1S)-1-(morpholin-4-ylcarbonyl)propyl]-2-oxopyrrolidin-3-yl}prop-1-ene-1-sulfonamide], the Ki was less than 10 nM.

Turning to `CC(C)[C@@H](C(=O)N1CCOCC1)N1CC[C@H](NS(=O)(=O)CCc2ccc(Cl)s2)C1=O` [Example 8, 2-(5-chlorothien-2-yl)-N-{(3S)-1-[(1S)-2-methyl-1-(morpholin-4-ylcarbonyl)propyl]-2-oxopyrrolidin-3-yl}ethanesulfonamide], the Ki was less than 10 nM.

As to `C/C(=C\S(=O)(=O)N[C@H]1CCN([C@H](C(=O)N2CCOCC2)C(C)C)C1=O)c1ccc(Cl)s1` [Example 9, (1E)-2-(5-chlorothien-2-yl)-N-{(3S)-1-[(1S)-2-methyl-1-(morpholin-4-ylcarbonyl)propyl]-2-oxopyrrolidin-3-yl}prop-1-ene-1-sulfonamide], the Ki was less than 10 nM.

With `CC[C@H](C)[C@@H](C(=O)N1CCOCC1)N1CC[C@H](NS(=O)(=O)CCc2ccc(Cl)s2)C1=O` [Example 10, 2-(5-chlorothien-2-yl)-N-{(3S)-1-[(1S,2S)-2-methyl-1-(morpholin-4-ylcarbonyl)butyl]-2-oxopyrrolidin-3-yl}ethanesulfonamide], the Ki was less than 10 nM.

Regarding `CC[C@H](C)[C@@H](C(=O)N1CCOCC1)N1CC[C@H](NS(=O)(=O)/C=C(\C)c2ccc(Cl)s2)C1=O` [Example 11, (1E)-2-(5-chlorothien-2-yl)-N-{(3S)-1-[(1S,2S)-2-methyl-1-(morpholin-4-ylcarbonyl)butyl]-2-oxopyrrolidin-3-yl}prop-1-ene-1-sulfonamide], the Ki was less than 10 nM.

Regarding `CC[C@H](C)[C@@H](C(=O)N1CCOCC1)N1CC[C@H](NS(=O)(=O)CCc2ccc(Br)cc2)C1=O` [Example 12, 2-(4-bromophenyl)-N-{(3S)-1-[(1S,2S)-2-methyl-1-(morpholin 4-ylcarbonyl)butyl]-2-oxopyrrolidin-3-yl}ethanesulfonamide], the Ki was less than 25 nM.

Turning to `O=C([C@H](Cc1ccccc1)N1CC[C@H](NS(=O)(=O)CCc2ccc(Cl)s2)C1=O)N1CCOCC1` [Example 13, N-{(3S)-1-[(1S)-1-benzyl-2-morpholin-4-yl-2-oxoethyl]-2-oxopyrrolidin-3-yl}-2-(5-chlorothien-2-yl)ethanesulfonamide], the Ki was less than 25 nM.

Regarding `C/C(=C\S(=O)(=O)N[C@H]1CCN([C@@H](Cc2ccccc2)C(=O)N2CCOCC2)C1=O)c1ccc(Cl)s1` [Example 14, (1E)-N-{(3S)-1-[(1S)-1-benzyl-2-morpholin-4-yl-2-oxoethyl]-2-oxopyrrolidin-3-yl}-2-(5-chlorothien-2-yl)prop-1-ene-1-sulfonamide], the Ki was less than 10 nM.

On to `COC[C@@H](C(=O)N1CCOCC1)N1CC[C@H](NS(=O)(=O)CCc2ccc(Cl)s2)C1=O` [Example 15, 2-(5-chlorothien-2-yl)-N-{(3S)-1-[(1S)-1-(methoxymethyl)-2-morpholin-4-yl-2-oxoethyl]-2-oxopyrrolidin-3-yl}ethanesulfonamide], for which the inhibitory constant (Ki) is less than 50 nM.

With `COC[C@@H](C(=O)N1CCOCC1)N1CC[C@H](NS(=O)(=O)/C=C(\C)c2ccc(Cl)s2)C1=O` [Example 16, (1E)-2-(5-chlorothien-2-yl)-N-{(3S)-1-[(1S)-1-(methoxymethyl)-2-morpholin-4-yl-2-oxoethyl]-2-oxopyrrolidin-3-yl}prop-1-ene-1-sulfonamide], the Ki is less than 10 nM.

Regarding `CO[C@H](C)[C@@H](C(=O)N1CCOCC1)N1CC[C@H](NS(=O)(=O)CCc2ccc(Cl)s2)C1=O` [Example 17, 2-(5-chlorothien-2-yl)-N-{(3S)-1-[(1S,2R)-2-methoxy-1-(morpholin-4-ylcarbonyl)propyl]-2-oxopyrrolidin-3-yl}ethanesulfonamide], the Ki is less than 10 nM.

For `CO[C@H](C)[C@@H](C(=O)N1CCOCC1)N1CC[C@H](NS(=O)(=O)/C=C(\C)c2ccc(Cl)s2)C1=O` [Example 18, (1E)-2-(5-chlorothien-2-yl)-N-{(3S)-1-[(1S,2R)-2-methoxy-1-(morpholin-4-ylcarbonyl)propyl]-2-oxopyrrolidin-3-yl}prop-1-ene-1-sulfonamide], the Ki was less than 10 nM.

`C[C@@H](C(=O)N1CCOCC1)N1CC[C@H](N(C)S(=O)(=O)CCc2ccc(Cl)s2)C1=O` [Example 19, 2-(5-Chlorothien-2-yl)-N-methyl-N-{(3S)-1-[(1S)-1-methyl-2-morpholin-4-yl-2-oxoethyl]-2-oxopyrrolidin-3-yl}ethanesulfonamide]: the Ki was less than 50 nM.

For the molecule `C[C@@H](C(=O)N1CCOCC1)N1CC[C@H](N(CC(N)=O)S(=O)(=O)CCc2ccc(Cl)s2)C1=O` [Example 20, N^2-{[2-(5-Chlorothien-2-yl)ethyl]sulfonyl}-N^2-{(3S)-1-[(1S)-1-methyl-2-morpholin-4-yl-2-oxoethyl]-2-oxopyrrolidin-3-yl}glycinamide], the Ki was less than 25 nM.

As for `O=C(C[C@@H](C(=O)N1CCOCC1)N1CC[C@H](NS(=O)(=O)CCc2ccc(Cl)s2)C1=O)OCc1ccccc1` [Example 21, Benzyl (3S)-3-[(3S)-3-({[2-(5-chlorothien-2-yl)ethyl]sulfonyl}amino)-2-oxopyrrolidin-1-yl]-4-morpholin-4-yl-4-oxobutanoate], the inhibitory constant (Ki) was less than 10 nM.
